In paper PMC11809512, “Looking for approved-medicines to be repositioned as anti-Trypanosoma cruzi agents. Identification of new chemotypes with good individual- or in combination-biological behaviours” (Memórias do Instituto Oswaldo Cruz, 2025):
Like-named read-outs stand apart in the source and are kept apart here.

Assays:
[1] = tested on: epimastigote T. cruzi; assay: Anti-epimastigote activity in modified milieu (excess Ca2+, glutamate or N-acetyl-L-cysteine, 1 mM); type: cell-based; settings: Trypanosoma cruzi; for inhibition at 25 µM: read-out: Percentage of growth inhibition at 25 µM
Protocol: Three controls of untreated parasites and containing excess of calcium (II), glutamate or N-acetyl-L-cysteine (1 mM) were included. All treated and untreated wells contain no more than 0.4% of DMSO. Controls were used to calculate the relative proliferation in the treatment wells. Assays were performed in triplicate for all cases.

[2] = tested on: epimastigotes of T. cruzi (Tulahuen 2 strain, DTU Tc VI); assay: Screening / IC50 against T. cruzi epimastigotes (growth, absorbance 610 nm, 5 days); type: cell-based, Trypanosoma cruzi; settings: for SIepi: SIepi = IC50,J774.1A/IC50,epi; for IC50: Trypanosoma cruzi, 120 h, read-out: IC50,epi; for anti-epimastigote activity in the initial screening (in words): 25 µM or 100 µg/mL, cut-off more than 65% inhibition
Protocol: (§1) Screening - Entities, dissolved in dimethylsulfoxide (DMSO, Sigma) before use and then diluted in a culture milieu, were firstly tested against epimastigotes of T. cruzi [Tulahuen 2 strain, discrete typing unit (DTU) Tc VI] as previously described.[14] ^, [15] […] The system was incubated at 28 °C for five days and to assess cell proliferation, cell density was monitored at 610 nm at time 0 (Ap0) and five days post incubation (Ap). All measures were normalised to the control population at day 0 (Ac0) and at day 5 (Ac5). Control parasites were incubated with 0.4% DMSO, corresponding to the highest DMSO concentration of the well. The percentage of parasite inhibition was calculated as: […]. This assay was independently performed three times. […] Secondly,[16] Vero (ATCC® CCL-81™) cells were infected with T. cruzi metacyclic trypomastigotes from 15 days old Dm28 clone (DTU Tc I) epimastigote cultures. Subsequently, the trypomastigotes harvested from this culture were used to infect further Vero cell cultures at a multiplicity of infection of 10. These trypomastigote-infected Vero cell cultures were incubated at 37 °C in humidified air and 5% CO2 for five to seven days. After this time, cellular trypomastigotes were collected from the supernatant by centrifugation at 3,000 × g for 10 min. The trypomastigote-containing pellets were resuspended in RPMI media supplemented with 5% foetal bovine serum (FBS) and penicillin/streptomycin at a final density of 1 × 10^8 parasites/mL. For viability assays, 1 × 10^7 trypomastigotes were seeded in black 96 well plates in RPMI and incubated with increasing concentrations of the entities under study for 24 h. Viability was analysed using resazurin, which is reduced to highly fluorescent resorufin. 50 μL of resazurin solution (2 mg/mL in RPMI) were added to each well and incubated for 4 h at 37 °C. Fluorescence (excitation 530 nm / emission 590 nm) was measured in a Thermo Scientific Varioskan® Flash Multimode plate spectrofluorimeter instrument. Untreated parasites were used as negative controls (100% of viability). […] Thirdly, for infection persistence analysis,[16] trypomatigotes Vero cells (at a multiplicity of infection of 10) growing in RPMI were trypsinised and replated in 24-wll plates (2-3 × 10^5 cells/well). […] After 24 h of incubation, cells were washed with phosphate-buffered saline (PBS), fixed with 4% paraformaldehyde, and stained with DAPI. Infected cells and amastigotes per cell were counted from randomly selected fields (400 cells per conditions). Two independent infections with trypomastigotes pre-treated with entities by two independent technicians were analysed. The percentage of uninfected Vero cells over total cells, as well as the percentage of decrease in the number of amastigotes per infected cell, was counted for each studied compound concentration tested and normalised against control untreated parasites.

[3] = tested on: J774.1A macrophages; assay: Cytotoxicity on macrophages (MTT, 48 h); type: cell-based; settings: Macrophage, read-out: IC50,J774.1A
Protocol: Cytotoxicity - J774.1A macrophages (ATCC® TIB67™) were grown in DMEM milieu supplemented with 10% […] FBS, 1% L-glutamine, 1% streptomycin, and 100 units/mL penicillin. Cell viability was assessed using the MTT protocol. […] Cells were grown in 96-well plates (5 × 10^4 cells/well) for 24 h. Cultures were carried out at 37 °C in a humidified atmosphere with 5% CO2 and incubated with the compounds at different concentrations for 48 h. After incubation, the milieu was removed, and the cells were treated with 100 μL of 0.4 mg/mL MTT for 4 h at 37 °C. Subsequently, 100 μL of DMSO was added to the mixture. The solubilised formazan product was quantified through absorbance measurements at 570 nm. The absorbance values were transformed to the percentage of cytotoxicity compared to the negative controls.

[4] = tested on: Trypanosoma cruzi trypomastigotes (Dm28c); assay: Trypomastigote viability (resazurin, 24 h); type: cell-based; settings: fixed concentrations, Fig. 1
Protocol: Screening - Entities, dissolved in dimethylsulfoxide (DMSO, Sigma) before use and then diluted in a culture milieu, were firstly tested against epimastigotes of T. cruzi [Tulahuen 2 strain, discrete typing unit (DTU) Tc VI] as previously described.[14] ^, [15] […] The system was incubated at 28 °C for five days and to assess cell proliferation, cell density was monitored at 610 nm at time 0 (Ap0) and five days post incubation (Ap). All measures were normalised to the control population at day 0 (Ac0) and at day 5 (Ac5). Control parasites were incubated with 0.4% DMSO, corresponding to the highest DMSO concentration of the well. The percentage of parasite inhibition was calculated as: (Ap - Ap0)/(Ac5 - Ac0) × 100. This assay was independently performed three times. […] Secondly,[16] Vero (ATCC® CCL-81™) cells were infected with T. cruzi metacyclic trypomastigotes from 15 days old Dm28 clone (DTU Tc I) epimastigote cultures. […] Viability was analysed using resazurin, which is reduced to highly fluorescent resorufin. […] Fluorescence (excitation 530 nm / emission 590 nm) was measured in a Thermo Scientific Varioskan® Flash Multimode plate spectrofluorimeter instrument. […] Infected cells and amastigotes per cell were counted from randomly selected fields (400 cells per conditions). Two independent infections with trypomastigotes pre-treated with entities by two independent technicians were analysed. […]

[5] = tested on: amastigote forms of T. cruzi in Vero cells (Dm28 clone, DTU Tc I); type: cell-based; settings: 24 h
Protocol: as §1
The number of amastigotes per cell as well as the number of infected cells was then counted.

[6] = Ca2+ 1 mM, read-out: IC50,epi with excess of Ca2+
[7] = epimastigotes Tulahuen 2, 5 days

## CCOC(=O)C1=C(COCCN)NC(C)=C(C(=O)OC)C1c1ccccc1Cl (centres unmarked) [Amlod, Amlodipine]
[1]; [6]
  IC50: ~25 µM
[2]
  SIepi: 7.00
[2]; [7]
  IC50: 13.7 µM
[3]; macrophages, MTT
  IC50: 95.7 µM

## O=C(Cn1ccnc1[N+](=O)[O-])NCc1ccccc1 [Bnz, Benznidazole]
[2]
  SIepi: 50.2
[2]; [7]
  IC50: 4.93 µM
[3]; macrophages, MTT
  IC50: 247 µM

## C[C@H]1c2cccc(O)c2C(=O)C2=C(O)[C@]3(O)C(=O)C(C(N)=O)=C(O)[C@@H](N(C)C)[C@@H]3[C@@H](O)[C@@H]21 [Dox, Doxycycline]
[2]
  SIepi: 1.24
[2]; [7]
  IC50: 19.1 µM
[3]; macrophages, MTT
  IC50: 23.8 µM

## C#Cc1cccc(Nc2ncnc3cc(OCCOC)c(OCCOC)cc23)c1 [Erlo, Erlotinib]
[2]
  anti-epimastigote activity in the initial screening (in words): did not display anti-T. cruzi activities in the assayed conditions

## NCC1(CC(=O)O)CCCCC1 [Gaba, Gabapentin]
[1]; read-out: IC50,epi with excess of Ca2+
  IC50: > 25 µM
[1]; read-out: IC50,epi with excess of glutamate
  IC50: > 25 µM
[2]; TULAHUEN
  IC50: 6.01 µM
[3]
  IC50: 19.1 µM

## CC(=O)N1CCN(c2ccc(OCC3COC(Cn4ccnc4)(c4ccc(Cl)cc4Cl)O3)cc2)CC1 (centres unmarked) [Ket, Ketoconazole]
[2]
  SIepi: 2.60
[2]; [7]
  IC50: 5.13 µM
[3]; macrophages, MTT
  IC50: 13.3 µM

## CS(=O)(=O)CCNCc1ccc(-c2ccc3ncnc(Nc4ccc(OCc5cccc(F)c5)c(Cl)c4)c3c2)o1 [Lapa, Lapatinib]
[2]; [7]
  IC50: 16.6 µM
[3]; macrophages, MTT
  IC50: 7.6 µM

## CCOC(=O)N1CCC(=C2c3ccc(Cl)cc3CCc3cccnc32)CC1 [Lorat, Loratadine]
[2]
  SIepi: 8.21
[2]; [7]
  IC50: 0.95 µM
[3]; macrophages, MTT
  IC50: 7.8 µM

## NC(=O)NN=C1C=Cc2ccccc2C1=O [Naft, Naftazone]
[4]
  anti-trypomastigote activity (in words): excellent cytotoxic agent for this form of the parasite
[1]; [6]
  IC50: 2.8 µM
[1]; NAC 1 mM, read-out: IC50,epi with excess of N-acetyl-L-cysteine (NAC)
  IC50: 1.9 µM
[1]; glutamate 1 mM, read-out: IC50,epi with excess of glutamate
  IC50: 13.5 µM
[2]
  SIepi: 135.7
[2]; [7]
  IC50: 0.75 µM
[3]; macrophages, MTT
  IC50: 102 µM
[5]; 6.25 µM
  %dnac: percentage of decrease in the number of amastigotes per treated Vero cell respect to control: 0%
  %ucell: percentage of uninfected Vero cells with amastigotes respect to untreated parasites: 0%
[5]; 12.5 µM
  %dnac: percentage of decrease in the number of amastigotes per treated Vero cell respect to control: 0%
  %ucell: percentage of uninfected Vero cells with amastigotes respect to untreated parasites: 0%
[5]; 25 µM
  %dnac: percentage of decrease in the number of amastigotes per treated Vero cell respect to control: 24%
  %ucell: percentage of uninfected Vero cells with amastigotes respect to untreated parasites: 15%

## CC1CS(=O)(=O)CCN1/N=C/c1ccc([N+](=O)[O-])o1 (centres unmarked) [Nfx, nifurtimox]
[1]; with Ca2+ (1 mM)
  inhibition at 25 µM: 61%
[1]; with Glu (1 mM)
  inhibition at 25 µM: 55%
[1]; with NAC (1 mM)
  inhibition at 25 µM: 20%
[1]; without Ca2+
  inhibition at 25 µM: 70%
[1]; without Glu
  inhibition at 25 µM: 70%
[1]; without NAC
  inhibition at 25 µM: 74%

## O=C1CN(/N=C/c2ccc([N+](=O)[O-])o2)C(=O)N1 [Nitrof, Nitrofurantoin]
[2]
  SIepi: 4.59
[2]; [7]
  IC50: 13.3 µM
[3]; macrophages, MTT
  IC50: 61.1 µM

## CCC(C)(C)C(=O)O[C@H]1C[C@@H](C)C=C2C=C[C@H](C)[C@H](CC[C@@H]3C[C@@H](O)CC(=O)O3)[C@H]21 [Simv, Simvastatin]
[2]
  SIepi: 0.88
[2]; [7]
  IC50: 7.36 µM
[3]; macrophages, MTT
  IC50: 6.5 µM

## CCN(CC)CCNC(=O)c1c(C)[nH]c(/C=C2\C(=O)Nc3ccc(F)cc32)c1C [Sun, Sunitinib]
[2]
  anti-epimastigote activity in the initial screening (in words): did not display anti-T. cruzi activities in the assayed conditions

## CN(C/C=C/C#CC(C)(C)C)Cc1cccc2ccccc12 [Terb, Terbinafine]
[2]
  SIepi: 3.05
[2]; [7]
  IC50: 21.4 µM
[3]; macrophages, MTT
  IC50: 65 µM
[5]; 6.25 µM
  %dnac: percentage of decrease in the number of amastigotes per treated Vero cell respect to control: 20%
  %ucell: percentage of uninfected Vero cells with amastigotes respect to untreated parasites: 4%
[5]; 12.5 µM
  %dnac: percentage of decrease in the number of amastigotes per treated Vero cell respect to control: 23%
  %ucell: percentage of uninfected Vero cells with amastigotes respect to untreated parasites: 15%
